Data reported in patent US8828696B2, “Use of Penicillin G Procaine as a selective antimicrobial agent in the production of alcohol by fermentation” (Lallemand Specialites, Inc, priority 2008, dated 2014).
Values joined by “and” are separate entries in the source; they are usually repeats but may differ in a detail not shown here. Identical values can stand only once.

Experiments:
[1] = system: Lactobacillus fermentum; assay: Comparative efficacy analysis Virginiamycin vs. Penicillin G Procaine, growth in MRS broth, 24 well plate; assay type: cell-based
Excerpt: The most commonly found microorganism in fuel ethanol producing plants is the Lactobacillus fermentum bacterium and is considered as an “industry normal” bacterium. This example compares the use of a Bactenix® line of products, Penicillin G Procaine-antibiotic versus Virginiamycin-antibiotic to control “industry normal” Lactobacillus fermentum bacterium. This trial uses an alcohol water mixture to assure total dissolving of antibiotics. This assures that the correct concentrations of antibiotics are going into the test wells and thereby preventing under dosing during the trial. All bacteria tested were industry specific isolates that were obtained from actual corn mash samples from fermentation alcohol production plants. The trial was set up as follows: • 1. Dissolve 0.1 g of each of the antibiotics in 1 ml water and then add 5 ml of ethanol, vortex and bring up to 10 ml with sterile water to from a suspension. • 2. Dilute the previous suspension 1:10 with sterile water. This gives a one mg/ml concentration. • 3. Filter the suspension by running through a 0.2 μm syringe filter. • 4. Add four μl broth in a centrifuge then add antibiotics to MRS (DeMan, Rogosa and Sharpe) broth at the concentrations required for the test. • 5. Take four μl of a fresh 24-hour culture of the target organisms and add to the corresponding empty wells in a pre-labeled 24 well tissue culture plate. • 6. Pipette one ml of the appropriate antibiotic media to each well of the plate. • 7. Incubate at 33° C. for 24 hours. • 8. Read plates for bacterial growth and re-incubate the plates at 33° C. • 9. After 48 hours read and report the final results.

[2] = system: contaminating bacteria; assay: Alcohol production plant trial, fermentor drop data (50 m/g/y dry grind, corn); assay type: cell-based; conditions: 0.5 ppm
Description: This trial was conducted at a 50 million gallon per year (m/g/y) dry grind fuel alcohol production facility utilizing corn as a fermentation substrate. Batch yeast propagation and fermentation process were utilized. Antimicrobials were added to the fermentor during the fill cycle at approximately 30% fill.
No other changes were made to the process or chemical additions that would influence the fermentation kinetics monitored during 3 sets of fermentor batches listed below. The fermentation data was accumulated at the end (drop) of the fermentation process for each of the fermentors. Fermentation kinetics was measured for three batch cycles including:
Set 1—“Pre Penicillin G Procaine trial”-10 fermentor batches using a level of 0.5 ppm Virginiamycin. See results in Table 2.
Set 2—“Penicillin G Procaine trial”-10 fermentor batches using a level of 0.5 ppm of Penicillin G Procaine. See results in Table 3.
Set 3—“Post Penicillin G Procaine trial”-10 fermentor batches using a level of 0.5 ppm of Virginiamycin. See results in Table 4.

[3] = Set 1 'Pre Penicillin G Procaine trial', 10 Batch average
[4] = Set 1 'Pre Penicillin G Procaine trial', drop data, single fermentor batch
[5] = Set 3 'Post Penicillin G Procaine trial', 10 Batch average
[6] = Set 3 'Post Penicillin G Procaine trial', drop data, single fermentor batch

In the case of Virginiamycin, the “inhibition of growth of the 'industry normal' bacteria” value ([1]; at 0.5 ppm, as per table 1) is reported as “did not seem to inhibit the growth”, the “effectiveness against Lactobacillus fermentum” value ([1]; dosage of above 1 ppm, compared with Penicillin G Procaine) is reported as “comparable effectiveness as Penicillin G Procaine” and the “concentration from which effective against Lactobacillus fermentum” value ([1]; industry standard L. fermentum isolate, MRS broth, 33° C., read at 24 and 48 hours) is reported as over 0.5 ppm. For the same substance, the Acetic % [2, 3] was 0.04%, the EtOH v/v % [2, 3] was 15.48 v/v % and the Glucose % [2, 3] was 0.29%. The Lactic % [2, 3] was 0.64%, the Acetic % [2, 4] was 0.02% and 0.04% and 0.13% and 0.03% and the Glucose % [2, 4] was 0.36% and 0.27% and 0.26% and 0.31% and 0.29% and 0.3% and 0.16%. The Lactic % [2, 4] was 0.59% and 0.71% and 0.85% and 0.56% and 0.79% and 0.584% and 0.41%, the Acetic % [2, 5] was 0.04% and the EtOH v/v % [2, 5] was 15.49 v/v %. The Glucose % [2, 5] was 0.30%, the Lactic % [2, 5] was 0.57% and the Acetic % [2, 6] was 0.05% and 0.04% and 0.03%. The Glucose % [2, 6] was 0.26% and 0.35% and 0.29% and 0.32% and 0.30% and 0.33% and 0.25%.
